Data set [1] deals with Smn protein. The experiment in a line: Smn protein assay (Smn HTRF) in cultured cells. The data set is classed as cell-based, human. As to conditions: Homo sapiens, Fibroblast, GM03813 SMA Type 1 patient fibroblasts, 48 hours, HTRF; for maximal fold induction: 7-point concentration data, relative to vehicle, read-out: maximum fold (Fold) increase of Smn protein; for EC (1.5-fold): concentration producing 1.5 times Smn protein vs DMSO vehicle, read-out: EC1.5x for Smn protein expression. Here is the method:
Smn Protein Assay in Cultured Cells
The Smn HTRF (homogeneous time resolved fluorescence) assay is used to quantify the level of Smn protein in SMA patient fibroblast cells treated with test compounds.
Protocol. Cells are thawed and cultured in DMEM-10% FBS for 72 hours. Cells are trypsinized, counted and re-suspended to a concentration of 25,000 cells/mL in DMEM-10% FBS. The cell suspension is plated at 5,000 cells per well in a 96 well microtiter plate and incubated for 3 to 5 hours. […] Test compounds are serially diluted 3.16-fold in 100% DMSO to generate a 7-point concentration curve. 1 μL of test compound solution is transferred to cell-containing wells and cells are incubated for 48 hours in a cell culture incubator (37° C., 5% CO2, 100% relateive humidity). Triplicate samples are set up for each test compound concentration. After 48 hours, the supernatant is removed from the wells and 25 μL of the RIPA lysis buffer, containing protease inhibitors, is added to the wells and incubated with shaking at room temperature for 1 hour. 25 μL of the diluent is added and then 35 μL of the resulting lysate is transferred to a 384-well plate, where each well contains 5 μL of the antibody solution (1:100 dilution of anti-SMN d2 and anti-SMN kryptate in SMN reconstitution buffer). The plate is centrifuged for 1 minute to bring the solution to the bottom of the wells, then incubated overnight at room temperature. Fluorescence for each well of the plate at 665 nm and 620 nm is measured on an EnVision multilabel plate reader (Perkin-Elmer).
The normalized fluorescence signal is calculated for each sample, Blank and vehicle control well by dividing the signal at 665 nm by the signal at 620 nm. Normalizing the signal accounts for possible fluorescence quenching due to the matrix effect of the lysate. The AF value (a measurement of Smn protein abundance as a percent value) for each sample well is calculated by subtracting the normalized average fluorescence for the Blank control wells from the normalized fluorescence for each sample well, then dividing this difference by the normalized average fluorescence for the Blank control wells and multiplying the resulting value by 100. The ΔF value for each sample well represents the Smn protein abundance from test compound-treated samples. The ΔF value for each sample well is divided by the ΔF value for the vehicle control wells to calculate the fold increase in Smn protein abundance relative to the vehicle control.
For compounds of Formula (I) or a form thereof disclosed herein, Table 9 provides the EC1.5x for Smn protein expression that was obtained from the 7-point concentration data generated for each test compound according to the procedure of Biological Example 7. The term “EC1.5x for Smn protein expression” is defined as that concentration of test compound that is effective in producing 1.5 times the amount of Smn protein in an SMA patient fibroblast cell compared to the amount produced from the DMSO vehicle control. An EC1.5x for Smn protein expression between >3 μM and ≦10 μM is indicated by one star (*), an EC1.5x between >1 μM and ≦3 μM is indicated by two stars (**), an EC1.5x between >0.3 μM and ≦1 μM is indicated by three stars (***) and an EC1.5x≦0.3 μM is indicated by four stars (****).
For compounds of Formula (I) or a form thereof disclosed herein, Table 10 provides the maximum fold (Fold) increase of Smn protein that was obtained from the 7-point concentration data generated for each test compound according to the procedure of Biological Example 7. A maximum fold increase ≦1.2 is indicated by one star (*), a fold increase between >1.2 and ≦1.35 is indicated by two stars (**), a fold increase between >1.35 and ≦1.5 is indicated by three stars (***), a fold increase between >1.5 and ≦1.65 is indicated by four stars (****) and a fold increase >1.65 is indicated by five stars (*****).
A general note: Time-resolved FRET reads energy transfer from a long-lived donor to a nearby acceptor.

In data set [2] the test system is full length SMN2 minigene mRNA containing SMN2 exon 7 (SMN2-A minigene). Put plainly: SMN2 minigene mRNA splicing RT-qPCR assay in cultured cells. The data set is classed as cell-based, human. Particulars: Homo sapiens, HEK293-H; HEK293H cells stably transfected with SMN2-A minigene, 24 hours, 7-point concentration curve; concentration giving 1.5-fold SMN2 full length mRNA vs vehicle; read-out: EC1.5x for production of full length SMN2 mRNA. Here is the method: SMN2 Minigene mRNA Splicing RT-qPCR Assay in Cultured Cells
The reverse transcription-quantitative PCR-based (RT-qPCR) assay is used to quantify the level of the full length SMN2 minigene mRNA containing SMN2 exon 7 in a HEK293H cell line stably transfected with said minigene and treated with a test compound.
Protocol. HEK293H cells stably transfected with the SMN2-A minigene construct described above (10,000 cells/well) are seeded in 200 μL of cell culture medium (DMEM plus 10% FBS, with 200 μg/mL hygromycin) in 96-well flat-bottom plates and the plate is immediately swirled to ensure proper dispersal of cells, forming an even monolayer of cells. Cells are allowed to attach for at least 4-6 hours. Test compounds are serially diluted 3.16-fold in 100% DMSO to generate a 7-point concentration curve. A solution of test compound (1 μL, 200× in DMSO) is added to each cell-containing well and the plate is incubated for 24 hours in a cell culture incubator (37° C., 5% CO2, 100% relative humidity). Two replicates are prepared for each test compound concentration. The cells are then lysed in Cells-To-Ct lysis buffer and the lysate is stored at −80° C.
Primer SMN Forward A (SEQ ID NO. 1) hybridizes to a nucleotide sequence in exon 7 (nucleotide 22 to nucleotide 40), primer SMN Reverse A (SEQ ID NO. 2) hybridizes to a nucleotide sequence in the coding sequence of Firefly luciferase, SMN Probe A (SEQ ID NO. 3) hybridizes to a nucleotide sequence in exon 7 (nucleotide 50 to nucleotide 54) and exon 8 (nucleotide 1 to nucleotide 21). The combination of these three oligonucleotides detects only SMN1 or SMN2 minigenes (RT-qPCR) and will not detect endogenous SMN1 or SMN2 genes.
The SMN forward and reverse primers are used at final concentrations of 0.4 μM. The SMN probe is used at a final concentration of 0.15 μM. The GAPDH primers are used at final concentrations of 0.2 μM and the probe at 0.15 μM.
The SMN2-minigene GAPDH mix (15 μL total volume) is prepared by combining 7.5 μL of 2×RT-PCR buffer, 0.4 μL of 25×RT-PCR enzyme mix, 0.75 μL of 20×GAPDH primer-probe mix, 4.0075 μL of water, 2 μL of 10-fold diluted cell lysate, 0.06 μL of 100 μM SMN forward primer, 0.06 μL of 100 μM SMN reverse primer, and 0.225 μL of 100 μM SMN probe.
PCR is carried out at the following temperatures for the indicated time: Step 1: 48° C. (15 min); Step 2: 95° C. (10 min); Step 3: 95° C. (15 sec); Step 4: 60° C. (1 min); then repeat Steps 3 and 4 for a total of 40 cycles.
Each reaction mixture contains both SMN2-A minigene and GAPDH primers/probe sets (multiplex design), allowing simultaneous measurement of the levels of two transcripts.
Two SMN spliced products are generated from the SMN2 minigene. The first spliced product containing exon 7, corresponding to SMN2 full length mRNA, is referred to herein using the term “SMN2 minigene FL.” The second spliced product lacking exon 7 is referred to herein using the term “SMN2 minigene Δ7.”
The increase of SMN2 minigene FL mRNA relative to that in cells treated with vehicle control is determined from real-time PCR data using a modified ΔΔCt method (as described in Livak and Schmittgen, Methods, 2001, 25:402-8). The amplification efficiency (E) is calculated from the slope of the amplification curve for SMN2 minigene FL and GAPDH mRNA individually. The abundance of SMN2 minigene FL and GAPDH mRNA are then calculated as (1+E)^−Ct, where Ct is the threshold value for each amplicon. The abundance of SMN2 minigene FL is normalized to GAPDH abundance. The normalized SMN2 minigene FL abundance from test compound-treated samples is then divided by normalized SMN2 minigene FL abundance from vehicle-treated cells to determine the level of SMN2 FL mRNA relative to vehicle control. […]
(In general: Quantitative PCR measures a nucleic acid by following its amplification.)

As a reminder, the melting point is the temperature, or range, at which the solid turns liquid. `COc1ccc(-c2cc(=O)c3cc(N4CCCNCC4)ccc3o2)cc1OC` [Cpd 25, 6-(1,4-diazepan-1-yl)-2-(3,4-dimethoxyphenyl)-4H-chromen-4-one] gave a melting point of 152 to 154 °C. The maximal fold induction in data set [1] fell in the range of 1.35 to 1.5. In addition, the EC (1.5-fold) in data set [2] lay within 3 to 30 µM.
Taken in the same sequence, the figures for `COc1ccc(-c2cc(=O)c3cc(N4CCCN(C)CC4)ccc3o2)cc1OC` [Cpd 26, 2-(3,4-dimethoxyphenyl)-6-(4-methyl-1,4-diazepan-1-yl)-4H-chromen-4-one] were 106 to 108 °C, 1.35 to 1.5 and 3 to 30 µM.
Consider `COc1ccc(-c2cc(=O)c3cc(N4CCNC(C)(C)C4)ccc3o2)cc1OC` [Cpd 27, 2-(3,4-dimethoxyphenyl)-6-(3,3-dimethylpiperazin-1-yl)-4H-chromen-4-one], for which the melting point was 108 to 110 °C. In data set [1], the maximal fold induction is more than 1.65 and the EC (1.5-fold) fell in the range of 1 to 3 µM. Further, the EC (1.5-fold) in data set [2] is 0.3 to 1 µM.
`Cc1ccn2cc(-c3cc(=O)c4cc(N5CCNCC5)ccc4o3)nc2c1` [Cpd 28, 2-(7-methylimidazo[1,2-a]pyridin-2-yl)-6-(piperazin-1-yl)-4H-chromen-4-one] returned a melting point of 228 to 232 °C. Further, in data set [1], the maximal fold induction was more than 1.65 and the EC (1.5-fold) lay within 3 to 10 µM. In addition, the EC (1.5-fold) in data set [2] lay in the range of 1 to 3 µM.
The like results for `Cc1ccn2cc(-c3cc(=O)c4cc(N5CCN[C@H](C)C5)ccc4o3)nc2c1` [Cpd 29, 2-(7-methylimidazo[1,2-a]pyridin-2-yl)-6-[(3R)-3-methylpiperazin-1-yl]-4H-chromen-4-one] were, in that order, 150 to 155 °C, 1.35 to 1.5, 3 to 10 µM and 3 to 30 µM.
For `Cc1ccn2cc(-c3cc(=O)c4cc(N5C[C@@H](C)N[C@@H](C)C5)ccc4o3)nc2c1` [Cpd 30, 6-[(3R,5S)-3,5-dimethylpiperazin-1-yl]-2-(7-methylimidazo[1,2-a]pyridin-2-yl)-4H-chromen-4-one], the melting point is 102 to 104 °C. Further, the maximal fold induction in data set [1] is 1.2 to 1.35. Besides, the EC (1.5-fold) in data set [2] was in the range of 1 to 3 µM.
The molecule `COc1ccc(-c2cc(=O)c3cc(N4CCN[C@@H](C)C4)ccc3o2)cc1OC` [Cpd 31, 2-(3,4-dimethoxyphenyl)-6-[(3S)-3-methylpiperazin-1-yl]-4H-chromen-4-one] came in with a melting point of 172 to 174 °C. Further, in data set [1], the maximal fold induction was more than 1.65 and the EC (1.5-fold) was not above 0.3 µM. The EC (1.5-fold) in data set [2] was not above 0.1 µM.
In the case of `O=c1cc(-c2nc3ccccc3s2)oc2ccc(N3CCNCC3)cc12` [Cpd 32, 2-(1,3-benzothiazol-2-yl)-6-(piperazin-1-yl)-4H-chromen-4-one], the melting point lay within 250 to 254 °C. The maximal fold induction in data set [1] lay within 1.2 to 1.35. Moreover, the EC (1.5-fold) in data set [2] lay within 1 to 3 µM.
Taken in the same sequence, the figures for `C[C@@H]1CN(c2ccc3oc(-c4nc5ccccc5s4)cc(=O)c3c2)CCN1` [Cpd 33, 2-(1,3-benzothiazol-2-yl)-6-[(3R)-3-methylpiperazin-1-yl]-4H-chromen-4-one] were 142 to 144 °C, 1.2 to 1.35 and 1 to 3 µM.
The like results for `C[C@@H]1CN(c2ccc3oc(-c4nc5ccccc5s4)cc(=O)c3c2)C[C@H](C)N1` [Cpd 34, 2-(1,3-benzothiazol-2-yl)-6-[(3R,5S)-3,5-dimethylpiperazin-1-yl]-4H-chromen-4-one] were, in that order, 200 to 202 °C, 1.35 to 1.5 and 0.3 to 1 µM.
Taken in the same sequence, the figures for `CN1CCN(c2ccc3oc(-c4nc5ccccc5s4)cc(=O)c3c2)CC1` [Cpd 35, 2-(1,3-benzothiazol-2-yl)-6-(4-methylpiperazin-1-yl)-4H-chromen-4-one] were 215 to 220 °C, 1.2 to 1.35 and 1 to 3 µM.
As to `C[C@H]1CN(c2ccc3oc(-c4nc5ccccc5s4)cc(=O)c3c2)CCN1` [Cpd 36, 2-(1,3-benzothiazol-2-yl)-6-[(3S)-3-methylpiperazin-1-yl]-4H-chromen-4-one], the melting point is 140 to 142 °C. In data set [1], the maximal fold induction was in the range of 1.5 to 1.65 and the EC (1.5-fold) was in the range of 1 to 3 µM. Besides, in data set [2], the EC (1.5-fold) lay in the range of 0.3 to 1 µM.
